Measured values published in the supplement of paper PMC11061612.

Tests used:
Assay in all cases: combination Emax (second highest fraction inhibited in the dose matrix, 72 h); higher = more inhibition; extreme values may be limits of the assay
[1] = tested on: IGROV-1 (Ovarian Carcinoma)
Summary of the method: (§1)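 After 24 hours at 37°C and 5% CO2 in 1536-well plates, cells in DMEM/F12 or RPMI plus 10% FBS received two-drug dose matrices for 72 hours. Viability came from CellTiter-Glo 2.0 luminescence and was scaled as inhibition, anchored at 0 by vehicle wells and at 1 by blank wells. Combination Emax is taken as the second-highest inhibition in the matrix, and Bliss excess as the observed combination effect less EA + EB − EA·EB, with EA and EB the single-agent effects.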

[2] = tested on: ATN-1 (T-Lymphoblastic Leukemia)
Summary of the method: as §1

[3] = tested on: RPMI-8402 (T-Lymphoblastic Leukemia)
Summary of the method: as §1

[4] = tested on: CAL-85-1 (Breast Carcinoma)
Summary of the method: as §1

[5] = tested on: GRANTA-519 (B-Cell Non-Hodgkin's Lymphoma)
Summary of the method: as §1

[6] = tested on: NCI-H2170 (Squamous Cell Lung Carcinoma)
Summary of the method: as §1

[7] = tested on: MRK-nu-1 (Breast Carcinoma)
Summary of the method: as §1

[8] = tested on: BC-1 (B-Cell Non-Hodgkin's Lymphoma)
Summary of the method: as §1

[9] = tested on: NCI-H1648 (Lung Adenocarcinoma)
Summary of the method: as §1

[10] = tested on: SCC90 (Head and Neck Carcinoma)
Summary of the method: as §1

[11] = tested on: OCI-M1 (Acute Myeloid Leukemia)
Summary of the method: as §1

[12] = tested on: NCI-H2452 (Mesothelioma)
Summary of the method: as §1

[13] = tested on: NCI-H1975 (Lung Adenocarcinoma)
Summary of the method: as §1

[14] = tested on: SBC-5 (Small Cell Lung Carcinoma)
Summary of the method: as §1

[15] = tested on: MG-63 (Osteosarcoma)
Summary of the method: as §1

[16] = tested on: HT-3 (Cervical Carcinoma)
Summary of the method: as §1

[17] = tested on: JURL-MK1 (Chronic Myelogenous Leukemia)
Summary of the method: as §1

[18] = tested on: DK-MG (Glioblastoma)
Summary of the method: as §1

[19] = tested on: KNS-62 (Squamous Cell Lung Carcinoma)
Summary of the method: as §1

Structure (SMILES): CN(CCO)CC[C@H](CSc1ccccc1)Nc1ccc(S(=O)(=O)NC(=O)c2ccc(N3CCC([C@@H](O)c4ccccc4-c4ccc(Cl)cc4)CC3)cc2)cc1S(=O)(=O)C(F)(F)F [AZD4320] + Cn1cnc2c(F)c(Nc3ccc(Br)cc3Cl)c(C(=O)NOCCO)cc21 [Selumetinib] (first compound max 1 µM, 7x7, partner max 3 µM)
- combination Emax [1]: 0.612
- combination Emax [2]: 0.732
- combination Emax [3]: 0.999
- combination Emax [4]: 0.683
- combination Emax [5]: 1
- combination Emax [6]: 0.676
- combination Emax [7]: 0.562
- combination Emax [8]: 0.443
- combination Emax [9]: 0.83
- combination Emax [10]: 0.881
- combination Emax [11]: 1
- combination Emax [12]: 0.346
- combination Emax [13]: 0.417
- combination Emax [14]: 0.245
- combination Emax [15]: 0.365
- combination Emax [16]: 0.257
- combination Emax [17]: 0.999
- combination Emax [18]: 0.336
- combination Emax [19]: 0.399

Structure (SMILES): CN(CCO)CC[C@H](CSc1ccccc1)Nc1ccc(S(=O)(=O)NC(=O)c2ccc(N3CCC([C@@H](O)c4ccccc4-c4ccc(Cl)cc4)CC3)cc2)cc1S(=O)(=O)C(F)(F)F [AZD4320] + C1CN(CCC1(C(=O)N[C@@H](CCO)C2=CC=C(C=C2)Cl)N)C3=NC=NC4=C3C=CN4 [Capivasertib] (first compound max 1 µM, 7x7, partner max 3 µM)
- combination Emax [1]: 0.767
- combination Emax [2]: 0.715
- combination Emax [3]: 0.961
- combination Emax [4]: 0.264
- combination Emax [5]: 0.812
- combination Emax [6]: 0.772
- combination Emax [7]: 0.3
- combination Emax [8]: 0.35
- combination Emax [9]: 0.735
- combination Emax [10]: 0.836
- combination Emax [11]: 0.984
- combination Emax [12]: 0.202
- combination Emax [13]: 0.558
- combination Emax [14]: 0.175
- combination Emax [15]: 0.271
- combination Emax [16]: 0.0692
- combination Emax [17]: 0.87
- combination Emax [18]: 0.255
- combination Emax [19]: 0.232

Structure (SMILES): Cc1c2c(nn1C)CSCc1cc(n(C)n1)CSc1cc(c3ccccc3c1)OCCCc1c(C(=O)O)n(C)c3c-2c(Cl)ccc13 [AZD5991] + CCN(CCO)CCCOc1ccc2c(Nc3cc(CC(=O)Nc4cccc(F)c4)[nH]n3)ncnc2c1 [AZD2811] (first compound max 1 µM, 7x7, partner max 1 µM)
- combination Emax [1]: 0.346
- combination Emax [2]: 0.976
- combination Emax [3]: 1
- combination Emax [4]: 0.267
- combination Emax [5]: 0.464
- combination Emax [6]: 0.655
- combination Emax [7]: 1
- combination Emax [8]: 1
- combination Emax [9]: 0.748
- combination Emax [10]: 0.908
- combination Emax [11]: 0.285
- combination Emax [12]: 0.452
- combination Emax [13]: 0.485
- combination Emax [14]: 0.78
- combination Emax [15]: 0.232
- combination Emax [16]: 0.907
- combination Emax [17]: 0.901
- combination Emax [18]: 0.839
- combination Emax [19]: 0.244

Structure (SMILES): Cc1c2c(nn1C)CSCc1cc(n(C)n1)CSc1cc(c3ccccc3c1)OCCCc1c(C(=O)O)n(C)c3c-2c(Cl)ccc13 [AZD5991] + C[C@@H](Nc1cc(F)cc(F)c1)c1cc(C(=O)N(C)C)cc2c(=O)cc(N3CCOCC3)oc12 [AZD8186] (first compound max 1 µM, 7x7, partner max 3 µM)
- combination Emax [1]: 0.8
- combination Emax [2]: 0.945
- combination Emax [3]: 0.888
- combination Emax [4]: 0.243
- combination Emax [5]: 0.0698
- combination Emax [6]: 0.275
- combination Emax [7]: 1
- combination Emax [8]: 1
- combination Emax [9]: 0.844
- combination Emax [10]: 0.903
- combination Emax [11]: 0.0662
- combination Emax [12]: 0.357
- combination Emax [13]: 0.431
- combination Emax [14]: 0.845
- combination Emax [15]: 0.357
- combination Emax [16]: 0.482
- combination Emax [17]: 0.629
- combination Emax [18]: 0.849
- combination Emax [19]: 0.17

Structure (SMILES): CC1(C)CCC(CN2CCN(c3ccc(C(=O)NS(=O)(=O)c4ccc(NCC5CCOCC5)c([N+](=O)[O-])c4)c(Oc4cnc5[nH]ccc5c4)c3)CC2)=C(c2ccc(Cl)cc2)C1 [Venetoclax] + C[C@@H]1COCCN1C2=NC(=NC(=C2)C3(CC3)[S@](=N)(=O)C)C4=C5C=CNC5=NC=C4 [AZD6738] (first compound max 1 µM, 7x7, partner max 10 µM)
- combination Emax [1]: 0.759
- combination Emax [2]: 0.973
- combination Emax [3]: 0.992
- combination Emax [4]: 0.571
- combination Emax [5]: 0.99
- combination Emax [6]: 0.691
- combination Emax [7]: 0.665
- combination Emax [8]: 0.933
- combination Emax [9]: 0.668
- combination Emax [10]: 0.373
- combination Emax [11]: 1
- combination Emax [12]: 0.573
- combination Emax [13]: 0.433
- combination Emax [14]: 0.792
- combination Emax [15]: 0.494
- combination Emax [16]: 0.452
- combination Emax [17]: 1
- combination Emax [18]: 0.336
- combination Emax [19]: 0.523

Structure (SMILES): CCN(CCO)CCCOc1ccc2c(Nc3cc(CC(=O)Nc4cccc(F)c4)[nH]n3)ncnc2c1 [AZD2811] + O=C(c1cc(Cc2n[nH]c(=O)c3ccccc23)ccc1F)N1CCN(C(=O)C2CC2)CC1 [Olaparib] (first compound max 1 µM, 7x7, partner max 10 µM)
- combination Emax [1]: 0.303
- combination Emax [2]: 0.835
- combination Emax [3]: 0.85
- combination Emax [4]: 0.0869
- combination Emax [5]: 0.452
- combination Emax [6]: 0.623
- combination Emax [7]: 0.491
- combination Emax [8]: 0.669
- combination Emax [9]: 0.233
- combination Emax [10]: 0.303
- combination Emax [11]: 0.268
- combination Emax [12]: 0.423
- combination Emax [13]: 0.191
- combination Emax [14]: 0.392
- combination Emax [15]: 0.335
- combination Emax [16]: 0.18
- combination Emax [17]: 0.688
- combination Emax [18]: 0.258
- combination Emax [19]: 0.145
